From a melting point compilation (Tetko et al.)

Compound	melting point
O=C(O)c1cccnc1OCC(F)F	79 to 81 °C
COc1cc(C=C2CC(C(C)(C)C)Cc3c2nc2ccccc2c3C(=O)O)cc(OC)c1OC (stereo not drawn)	220 to 222 °C
CC(C)(C)OC(=O)N1CCCC(COCC(=O)O)C1 (stereo not drawn)	74 to 76 °C
N#Cc1c(O)c(Cl)c(Cl)c(C#N)c1Cl	256 to 258 °C
Cc1[nH]c2ccc(CN)cc2c1C	149 to 151 °C
O=c1[nH]c2cc(F)c(F)cc2[nH]1	332 to 334 °C
Nc1ccc2[nH]nc(N)c2c1	157 to 159 °C
Nc1cccc(S(=O)(=O)Nc2cn[nH]c2)c1	194 to 196 °C
Cc1cc(Cl)cc(C)c1C=O	39 to 41 °C
Cc1cccc(C#N)n1	70 to 72 °C
CCc1noc(CC)c1CC(=O)O	73 to 75 °C
O=C(O)CSc1nnc(NC2CCCCC2)s1	157 to 159 °C
CCOC(=O)COc1ccccc1O	51 to 53 °C
CC(C)n1cc(Br)cc1C(=O)O	148 to 150 °C
Nc1c(F)cccc1C(=O)O	182 to 186 °C
CC(C)Cn1nc(C(=O)O)c2ccccc2c1=O	171 to 173 °C
Cc1nn(-c2cncc3nnnn23)c(C)c1CC(=O)O	173 to 175 °C
O=C(O)C1CCN(C2=NS(=O)(=O)c3ccccc32)CC1	279 to 281 °C
Nc1ccc2c(c1)C(=O)N(CC1CC1)C2=O	163 to 165 °C
NCc1ccc(-c2ccncc2)cc1	64 to 66 °C
O=C(O)CNC(=O)/C=C/c1ccco1	218 to 221 °C
O=C(O)c1ccc(S(=O)(=O)N2CCc3ccccc3C2)cc1	272 to 274 °C
CS(=O)(=O)Nc1ccccc1I	96 to 98 °C
COC(=O)c1cc(C(C)(C)C)n[nH]1	172 to 174 °C

Compound	melting point
O=C(Cc1nc2ccccc2[nH]1)c1ccccc1	180 to 182 °C
Cn1c(Cl)cc(=O)[nH]c1=O	195 to 197 °C
[N-]=[N+]=Nc1ccc(Cl)c(Cl)c1	32 to 34 °C
Clc1csc(Cl)n1	42 to 46 °C
CC(C)(C)OC(=O)NCC1CCCCC1N (stereo not drawn)	61 to 63 °C
COC(=O)c1cc(I)cc(S(=O)(=O)Cl)c1	67 to 69 °C
Sc1nnc(-c2cccs2)o1	162 to 164 °C
CC(C)(C(=O)O)S(=O)(=O)c1ccc(Br)cc1	162 to 164 °C
Cc1cc(=O)nc2sc(N3CCNCC3)nn12	234 to 236 °C
O=C(O)CCC(=O)c1ccc(S(=O)(=O)Cl)cc1	126 to 128 °C
O=C(O)c1cc(-c2cccnc2)nc2ccccc12	323 to 325 °C
CNC(c1ccc(Cl)cc1)c1ccc(Cl)cc1	49 to 51 °C
O=C(O)C1C2C=CC(C2)C1C(=O)N1CCN(CCO)CC1 (stereo not drawn)	192 to 194 °C
Cc1cc(C(=O)O)c(N)cc1F	219 to 221 °C
N#Cc1ccc(C(=O)N2CCOCC2)cc1	144 to 146 °C
CCOc1ccc(S(=O)(=O)N2CCCCC2)cc1N	134 to 136 °C
Cc1sc(N)nc1-c1cccc(Cl)c1	90 to 94 °C
CC(C)Nc1ccc(C#N)cn1	99 to 101 °C
COc1cc2c(cc1OC)C(c1ccccc1)NCC2 (stereo not drawn)	111 to 113 °C
CCOC(=O)CNc1cc(Cl)cc(Cl)c1	99 to 101 °C
Nc1nnc(C(=O)NCc2ccccc2)[nH]1	248 to 250 °C
O=C(O)c1cccc(CSc2c(Cl)cccc2Cl)c1	222 to 224 °C
CCOc1ccc(N)cc1Cl	63 to 65 °C
N#Cc1ccc(NC(=O)CC2CCCC2)cc1	145 to 147 °C

Compound	melting point
N#Cc1ccc(S(=O)(=O)Cl)cn1	67 to 69 °C
Cc1cc(-c2csc(N)n2)c(C)s1	72 to 74 °C
CN1CCN(S(=O)(=O)c2cccc(Br)c2)CC1	103 to 105 °C
NS(=O)(=O)c1c(Cl)cccc1C(F)(F)F	155 to 157 °C
O=C(O)C1CC1c1ccc(OC(F)(F)F)cc1 (stereo not drawn)	96 to 98 °C
Nc1nc(-c2ccccc2Cl)cs1	142 to 144 °C
O=C(O)c1ccc(=O)n(-c2ccc(F)cc2)c1	299 to 301 °C
OCc1nnnn1-c1ccccc1	100 to 102 °C
N#CC(C(=O)CCl)c1nc2ccccc2c(=O)[nH]1 (stereo not drawn)	216 to 218 °C
CC1(c2ccc(Cl)c(Cl)c2)NC(=O)NC1=O (stereo not drawn)	203 to 207 °C
CCOc1ccc(C2(C)NC(=O)NC2=O)cc1 (stereo not drawn)	190 to 192 °C
CC(C)(C(=O)O)c1ccc2ccccc2c1	146 to 148 °C
O=C(O)Cc1csc(-c2ccc(Cl)s2)n1	136 to 138 °C
CCCn1c(CCC(=O)O)nc2cc(S(N)(=O)=O)ccc21	259 to 261 °C
Nc1cc(-c2cc(Br)ccc2Cl)[nH]n1	158 to 160 °C
O=C(O)c1cccc(S(=O)(=O)N2CCCc3ccccc32)c1	98 to 100 °C
CCc1nnsc1C(=O)NC1CCCCC1	80 to 82 °C
Nc1nc(Cl)c(Cl)cc1[N+](=O)[O-]	126 to 128 °C
O=c1[nH]c(CO)nc2ccccc12	221 to 223 °C
COc1ccc(C(=O)c2cccc3ccccc23)cc1	95 to 97 °C
OC(c1ccc(Cl)cc1)C1CCNCC1 (stereo not drawn)	139 to 141 °C
COc1ccccc1Nc1nc(-c2ccc(C)cc2)cs1	143 to 145 °C
O=C(O)c1cnoc1-c1ccco1	195 to 197 °C
O=c1[nH]nc(N2CCNCC2)c(=O)[nH]1	150 to 152 °C

Compound	melting point
Cn1cc(C#N)cc1C(=O)C(Cl)(Cl)Cl	146 to 148 °C
Cc1nc(CO)c(C)s1	44 to 46 °C
Cc1nn(C)c2nc(Cl)c(C=O)cc12	182 to 184 °C
O=C(O)c1cc2ccccn2c1	179 to 181 °C
Cc1ccc(C)c(NC(=S)NN)c1	162 to 164 °C
CC(C)c1c(C(=O)O)nnn1-c1ccc(F)cc1F	158 to 160 °C
CC(C)(C)c1cnc(S)s1	115 to 117 °C
CN(C)c1ccc(/C=C/c2cc(C(=O)O)c3cc(Br)ccc3n2)cc1	298 to 300 °C
O=c1[nH]c2ccc(NCc3ccc(F)cc3)cc2[nH]1	251 to 253 °C
CC(Cl)C(=O)Nc1ccccc1Br (stereo not drawn)	75 to 77 °C
CC(C)Cc1cc(N)n(C)n1	90 to 92 °C
CNc1ccc(F)cc1[N+](=O)[O-]	71 to 73 °C
CCOc1ccc2cc(C(=O)O)[nH]c2c1	168 to 170 °C
COc1ccc2c(c1)C(=O)CCC2	55 to 59 °C
COc1ccc([N+](=O)[O-])cc1CCl	78 to 80 °C
C/C(=N\OCC(=O)O)c1ccc2c(c1)OCO2	136 to 138 °C
O=C(O)c1ccnc(C2CC2)n1	218 to 220 °C
CC(NS(C)(=O)=O)C(=O)NN (stereo not drawn)	117 to 119 °C
O=C1CNCCN1Cc1ccc(Cl)cc1	83 to 85 °C
ClCc1nnnn1-c1ccccc1Br	45 to 47 °C
CS(=O)(=O)c1ccc(F)c(C(=O)O)c1	190 to 192 °C
N#Cc1ccc(CS(=O)(=O)CC(=O)O)cc1	197 to 199 °C
NS(=O)(=O)CCc1ccccc1	122 to 124 °C
Cc1sc2nc(CCl)[nH]c(=O)c2c1-c1ccccc1	259 to 261 °C

Compound	melting point
COC(=O)C(=O)CC(=O)c1ccccc1	58 to 60 °C
O=C(NC1CCC(O)CC1)C(F)(F)F (stereo not drawn)	186 to 188 °C
CC(C)(C)OC(=O)NCc1cn[nH]c1	104 to 106 °C
O=S(=O)(Cl)c1scc(Br)c1Br	111 to 113 °C
COc1ccc(C(C)=O)cc1Br	82 to 84 °C
CCNc1cc(C(=O)O)ccn1	291 to 293 °C
CCOC(=O)C(N)=NO	94 to 96 °C
CNC(=O)c1c[nH]c2ccccc12	203 to 205 °C
COc1ccc(-c2ccc(CCC(=O)O)o2)cc1	142 to 144 °C
O=C(O)CS(=O)(=O)CC(=O)Nc1ccc(Br)cc1	207 to 209 °C
CCOc1ccc(C#N)cn1	97 to 99 °C
CCc1cc2c(=O)[nH]c(N3CCCC3)nc2s1	253 to 255 °C
Cc1ccc(C)c2[nH]c(C(=O)O)cc12	206 to 208 °C
O=C(O)c1ccccc1Nc1ccc(SC(F)F)cc1	116 to 118 °C
Cc1cc([N+](=O)[O-])ccc1NC(=O)CCl	118 to 120 °C
COC(=O)c1ccc(NS(C)(=O)=O)cc1	147 to 149 °C
O=C(O)c1ccc(=O)n(-c2ccccc2F)c1	249 to 251 °C
COC(=O)C(=O)CC(=O)c1ccc(-c2ccccc2)cc1	142 to 144 °C
Nc1nc2nc(-c3ccccc3)cc(C(F)(F)F)c2s1	234 to 236 °C
O=C(O)c1ccccc1COc1ccccc1C(=O)O	199 to 201 °C
CC(C)(C)C(N)=S	114 to 116 °C
Nc1nc2ccccc2o1	124 to 126 °C
CN(C)c1ccc(Br)c(S(=O)(=O)Cl)c1	111 to 113 °C
COC(C)c1nc(CC(=O)O)cs1 (stereo not drawn)	154 to 156 °C

Compound	melting point
Cc1c(N)cccc1CS(C)(=O)=O	149 to 151 °C
CC(C)Oc1ccc(NS(=O)(=O)CC(=O)O)cc1	116 to 118 °C
CC(C)(C)OC(=O)N1CCc2[nH]c(=O)c(S(C)(=O)=O)cc2C1	229 to 231 °C
CC(=O)N(c1nc(C=O)cs1)C1CC1	112 to 114 °C
CC(N)c1cccc(N2CCCS2(=O)=O)c1 (stereo not drawn)	60 to 62 °C
O=c1ccc2cc(S(=O)(=O)Cl)ccc2o1	117 to 119 °C
CC(N)c1ccc(-n2ccnc2)cc1 (stereo not drawn)	50 to 52 °C
Nc1cc(-c2cc(F)cc(F)c2)[nH]n1	110 to 112 °C
O=C(O)c1ccn(-c2cccc(Br)c2)n1	142 to 144 °C
NC(=O)C(N)C(N)=O	171 to 173 °C
Cc1ccc(-c2csc(CC(N)=NO)n2)cc1	146 to 148 °C
CCC(=O)c1ccc(Cl)c(Cl)c1O	98 to 100 °C
Cc1nnc(-c2ccccc2N)o1	145 to 147 °C
ON=Cc1ccc(OCc2ccccn2)cc1	154 to 156 °C
O=C(O)C1CCCN(S(=O)(=O)c2cccs2)C1 (stereo not drawn)	136 to 138 °C
NCCCc1nc(C2CC2)n[nH]1	207 to 209 °C
NC(=O)c1cn[nH]c1N	184 to 186 °C
CCCc1ccc2c(c1)C(=O)C(=O)N2	104 to 106 °C
CC1=C(C#N)CCC(=O)N1	201 to 203 °C
O=C(O)c1ccc(Oc2ccc(Cl)cc2)c(Cl)c1	167 to 169 °C
CSc1nc(C(=O)O)c2ccccn12	202 to 204 °C
Cc1ccccc1-c1nonc1N	88 to 90 °C
CN(C)S(=O)(=O)c1ccc2nc(Cl)c(Cl)nc2c1	139 to 141 °C
